Reference: the METLIN SMRT retention time set (Domingo-Almenara et al. 2019)

Experiment: gradient 5% acetonitrile 3 min, to 50% in 2 min, to 85% in 15 min, held 3 min, 100 µL/min
Settings: column: Zorbax Extend-C18 2.1 x 50 mm; eluents: water / acetonitrile, 0.1% formic acid
How it was run: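 Pure standards were run in mixtures of ~100 molecules by HPLC coupled to a quadrupole time-of-flight mass spectrometer. The column was a Zorbax Extend-C18 (2.1 × 50 mm, 1.8 μm) at 100 μL/min, with water and acetonitrile each containing 0.1% formic acid, in positive and negative ionization mode. Dead and dwell volumes were 40 μL and 900 μL. Retention time was taken from computationally picked adduct peaks, each manually inspected, with data collected over 3 months.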

SMILES	RP-LC retention time [s]
COc1ccc(Br)cc1CNC(=O)Cn1cc(-c2nnco2)c2ccccc21	855
COc1ccc(CN2C[C@@H]3C(=O)N(Cc4ccc5c(c4)OCO5)C(=O)[C@@H]3C2)c(OC)c1	691
Cc1ccn2cc(-c3ccc(NC(=O)c4ccccc4F)cc3)nc2n1	634
COc1ccc(C(=O)Nc2cccn3nc(C)nc23)cc1	719
CN(CCNC(=O)NCc1noc2ccccc12)C1CCCCC1	558
COC(=O)C1=CN(c2ccc(OC)cc2OC)c2cc(F)ccc2S1(=O)=O	875
O=C(NCC(O)c1ccsc1)c1ccc2nsnc2c1 (configuration not stated)	659
COCCCNc1c(-c2cccc(F)c2)nc2sc(C(=O)N3CCCC3)c(C)n12	824
CC(C)CNC(=O)CCc1nc2ccccc2n(CC(=O)NC(C)CCc2ccccc2)c1=O (configuration not stated)	869
O=C(CSc1ncn[nH]1)c1ccc2c(c1)OCCO2	626
CC(C)(C)CC(=O)NCCn1c(=O)n(Cc2ccccc2)c2cccnc21	786
Cc1cccc(Sc2nccnc2N2CCC(C(=O)NCCC(C)C)CC2)c1	1100
COc1ccccc1NC(=O)Cn1cccc(-c2nc(-c3ccc(Br)cc3)no2)c1=O	1000
Cc1nc2cc(-c3noc(-c4cc(F)ccc4Cl)n3)ccc2o1	1150
Cc1cc(F)ccc1NS(=O)(=O)c1ccc(-c2c(C)noc2C)cc1	964
COC(=O)C(C)NC(=O)NCc1cccn1Cc1cc(C)ccc1C (configuration not stated)	885
CCN1CCC2(CC1)NC(=O)N(CC(=O)Nc1ccc(OC(F)(F)F)cc1)C2=O	582
O=C(Nc1cc(C(F)(F)F)ccc1Cl)c1ccc2ncsc2c1	922
Cc1nc2cc3c(cc2n1CC(=O)Nc1ccc2c(c1)OCCO2)OCCO3	632
CCC(C)NC(=O)CCCn1c(=O)c2cccn2c2ccccc21 (configuration not stated)	760
c1ccc2c(c1)OCC(c1nc(-c3ccc(-n4ccnc4)nc3)no1)O2 (configuration not stated)	707
O=C(Cc1nnc(-c2ccc3ncccc3c2)o1)NCc1ccccc1	672
COc1cccc(-n2nnc(C(=O)O)c2C(F)(F)F)c1	752

SMILES	RP-LC retention time [s]
CCCn1cc(S(=O)(=O)Nc2ccccc2Cl)c2cccnc21	914
CCN1CCN(S(=O)(=O)c2ccc(Cl)c(-c3nnc(-c4ccc(OC)cc4)o3)c2)CC1	677
CCOC(=O)c1noc2ncnc(Nc3ccc(C)cc3C)c12	1030
Cc1ccc(CNC(=O)CCc2ccc3nc(-c4ccccc4)[nH]c3c2)o1	625
COc1cccc(NC(=O)NCCc2cn(C)c3ncccc23)c1	662
CC(C)c1cc(C(=O)Nc2ccccc2)no1	969
Cc1ccc(NC(=O)N2CCc3[nH]cnc3C2c2ccncc2)c(Cl)c1 (configuration not stated)	753
Cc1ccn2c(Nc3ccc4c(c3)OCCO4)c(-c3ccc(O)cc3)nc2c1	719
CCNC(=O)c1cc(C)no1	596
O=S(=O)(Nc1ccc(Br)cn1)c1ccccc1	780
CC(C)(C)CC(=O)NC1CCN(c2ccc(F)cc2)C1=O (configuration not stated)	755
Cc1nnc(-n2cccc2)s1	733
Cc1csc(-c2cc(S(=O)(=O)NCCc3cccs3)c(C)n2C)n1	973
Cc1noc2ncnc(N3CCC(C(=O)NCCN(C)C)CC3)c12	567
COc1ccc2c(NCCCCCCNc3c4ccccc4nc4cc(OC)ccc34)c3ccccc3nc2c1	655
CC(C)n1c(=O)oc2cc(-c3noc(-c4cccc5[nH]ccc45)n3)ccc21	1080
Cc1ccc(C)c(S(=O)(=O)N2[C@H]3CC[C@@H]2c2cnc(-c4ccccc4)nc2C3)c1	1230
COc1cc(-c2noc(C3CC(=O)N(c4ccc(C)cc4)C3)n2)cc(OC)c1OC (configuration not stated)	902
CC(C)n1cc(S(=O)(=O)Nc2ccc(C#N)cc2)c2cccnc21	833
Cc1ccc(S(=O)(=O)/C=C/C#N)cc1	929
CC(C)(C)NC(=O)Nc1nnc(SCc2c(F)cccc2Cl)s1	946
CSc1cccc(NC(=O)CC2COc3ccccc3NC2=O)c1 (configuration not stated)	742
CC(C)(C)c1csc(NC(=O)C2CC(=O)N(c3n[nH]c4cccc(F)c34)C2)n1 (configuration not stated)	838

Continued, values first:

RP-LC retention time [s]	SMILES
737	O=C(c1ccc(-c2cccs2)nc1)N1CCCC1
1250	CCn1nc2c(S(=O)(=O)N3CCN(c4ccc(F)cc4)CC3)cccn2c1=O
1080	CCCn1cc(C(=O)NCCCOCC)c(S(=O)(=O)N2CCN(c3ccc(Cl)cc3)CC2)n1
900	COc1ccc(N2CC(C(=O)NC(C(=O)N3CCCc4ccccc43)c3ccccc3)CC2=O)cc1 (configuration not stated)
718	O=C(NCc1csc(C2CCCN(C(=O)COc3ccccc3)C2)n1)C1CC1 (configuration not stated)
610	Cn1nc2n(c1=O)CCN(C(=O)c1ccc3c(c1)OCO3)CC2
703	CN1C(=O)c2cccn2CC1C(=O)N1CCc2ccccc21 (configuration not stated)
716	O=C(NCC1(c2cccs2)CCOCC1)c1cc(=O)c2ccccc2o1
990	O=C(CN1C(=O)CCCc2cc(S(=O)(=O)N3CCCCC3)ccc21)Nc1ccc(Cl)cc1
829	O=C(c1ccc2c(c1)CCN2C(=O)C1CC1)N1CCN(c2ccccc2)CC1
712	CC(=O)N(C1CCOCC1)C1CCN(S(=O)(=O)c2ccccc2)CC1
580	COc1ccccc1-c1cc2nc(C)cc(N3CCN(c4ccccn4)CC3)n2n1
666	CCc1ccc(CNC(=O)C2CCN(c3cncnc3N3CCOCC3)CC2)cc1
1040	O=C(Nc1nc2ccccc2s1)c1ccc(S(=O)(=O)N2CCc3ccccc32)cc1
624	Cc1ccc(-c2cc(C(=O)NCCN3CCN(C)CC3)n(C)c2)cc1
605	O=C(CCCN1C(=O)c2cccnc2Oc2ccccc21)N1CCN(c2ccccn2)CC1
692	O=C(C1CCCN(c2cnc3nccnc3c2)C1)N1CCCCCC1 (configuration not stated)
1080	O=C1CC(c2nc(-c3ccc(Br)cc3)no2)CN1c1ccccc1 (configuration not stated)
816	O=C(NCc1ccccc1)c1nnc(-c2ccc(S(=O)(=O)N3CCOCC3)cc2)o1
801	CN(C)C(=O)c1ccc2c(c1)N(CC(=O)NC1CCCCCC1)C(=O)C1CCCCN21 (configuration not stated)
669	O=C(Nc1cccnc1)c1c2c(nc3ccccc13)C(=O)N(C1CCCCC1)C2
556	Cc1cc(C)c2c(N3CCCCC3)nc(C(=O)N3CCN(C(C)C)CC3)nc2n1
766	CCOC(=O)C1CCCN(C(=O)C2c3ccccc3C(=O)N3CCc4cc(OC)c(OC)cc4C23)C1 (configuration not stated)

RP-LC retention time [s]	SMILES
907	COc1ccc(-c2noc(C3CCCN3C(=O)c3ccccc3)n2)cc1 (configuration not stated)
654	Cc1ccc(CNC(=O)c2ccc(-c3cc(N4CCCC4)ncn3)cc2)o1
827	Cc1nnc(-c2ccc3ccn(CC(=O)N4CCN(c5ccc(F)cc5)CC4)c3c2)o1
675	CC(C)C(=O)N1CCc2c(c(C(=O)N3CCC(C(=O)NCc4ccc(F)cc4)CC3)nn2C)C1
608	CC1CCCN(CC2CCN(C(=O)Nc3ccc(F)cc3)CC2)C1 (configuration not stated)
912	O=C(Nc1ccccc1)c1cc(C2CC2)on1
823	CC(C)CC(C(=O)Nc1cccc(O)c1)N1C(=O)c2ccccc2C1=O (configuration not stated)
865	O=C(NCCC1CCN(S(=O)(=O)c2ccccc2)CC1)NC1CCCCC1
734	Cc1oc(C2CCN(S(=O)(=O)c3cccc(C#N)c3)CC2)nc1C(=O)N1CCOCC1
604	CCC(=O)N1CCc2cc(-c3ccc(C(=O)NCCN4CCN(CC)CC4)cc3)ccc21
708	Cc1ccc(C(=O)NC2CCN(c3cc(-c4ccccc4)[nH]n3)C2)s1 (configuration not stated)
705	Cc1ccc(NC(=O)C2CCN(S(=O)(=O)c3cc(C(=O)N4CCC(C)CC4)n(C)c3)CC2)nc1
1020	CC1CCc2cc(F)ccc2N1C(=O)C12CCC(C1)C(C)(C)C2=O (configuration not stated)
1090	O=C(CCc1nc(-c2ccc(N3CCCCC3)cc2)no1)NCCC1=CCCCC1
880	CCc1cccc(C)c1NC(=O)C1CCN(S(C)(=O)=O)c2ccccc2O1 (configuration not stated)
1050	COc1ccc(C(=O)N2CCc3nc(-c4ccc(Cl)cc4)ncc3C2)cc1F
625	O=C(Nc1ccccc1)N1CCc2[nH]cnc2C1c1ccccc1 (configuration not stated)
602	CCC(=O)N1CCN(Cc2nc3cc(NC(=O)c4cccs4)ccc3n2C)CC1
609	O=C(Nc1ccc(-c2nnc3n2CCCC3)cc1)c1ccco1
642	Cc1nc(CCNC(=O)[C@H]2CCCN2C(=O)c2cccc(F)c2)cs1
553	COc1ccc(CCN2CC(C(=O)N3CCN(C(C)C)CC3)CC2=O)cc1OC (configuration not stated)
702	O=C1CC(c2ccccc2F)Cc2nc(N3CCN(c4ccccn4)CC3)ncc21 (configuration not stated)
860	COC(=O)c1c(-c2ccccc2)noc1N1CCOCC1
